Data from patent US12195490B2, “STRAD-binding agents and uses thereof” (The Regents of the University of California, priority 2020, dated 2025).
Structures can show the parent of a compound that is named as a salt.

tested on: ACHN cell line; assay: drug screen of the SelleckChem kinase inhibitor library with and without 5 uM SU-329, Cell-Titer Glo after 5 days; format: cell-based; conditions: kinase inhibitor at 200 nM with and without 5 uM SU329; ACHN cell line; 5 days; Cell-Titer Glo

Going from `COc1ncc(-c2ccc3nccc(-c4ccnnc4)c3c2)cc1NS(=O)(=O)c1ccc(F)cc1F` [Omipalisib (GSK2126458, GSK458)] to `CNC(=O)c1cc(Oc2ccc(NC(=O)Nc3cc(C(C)(C)C)nn3-c3ccc4ncccc4c3)c(F)c2)ccn1` [Rebastinib (DCC-2036)], the log2fc falls from 0.5342 to 0.007715.

Compared with `Cc1[nH]c(/C=C2\C(=O)Nc3ccccc32)c(C)c1CCC(=O)O` [Orantinib (TSU-68, SU6668)], `Cc1[nH]c(/C=C2\C(=O)Nc3ccc(S(=O)(=O)Cc4c(Cl)cccc4Cl)cc32)c(C)c1C(=O)N1CCC[C@@H]1CN1CCCC1` [PHA-665752] is higher in log2fc: −0.2487 for the first, 0.1781 for the second.

`C=CC(=O)Nc1cc(Nc2nccc(-c3cn(C)c4ccccc34)n2)c(OC)cc1N(C)CCN(C)C` [Osimertinib (AZD9291)] and `C=CC(=O)Nc1cccc(Nc2nc(Nc3ccc(N4CCN(C(C)=O)CC4)cc3OC)ncc2C(F)(F)F)c1` [Rociletinib (CO-1686, AVL-301)] are within 0.2 log units of each other in log2fc: −0.01286 for the first, −0.001899 for the second.

`COc1cccc(-c2cc(=O)c3ccccc3o2)c1N` [PD98059, reference compound] and `COc1c(C)c(C(=O)c2ccc(N)c(C(=O)[O-])c2)n2ccccc12.[Na+]` [SSR128129E] are within 0.2 log units of each other in log2fc: 0.3369 for the first, 0.3473 for the second.

First: C=CC(=O)Nc1ccc2ncnc(Nc3cccc(Br)c3)c2c1 [PD168393]
Second: CNC(=O)CN1CCC(Oc2cc3c(Nc4cccc(Cl)c4F)ncnc3cc2OC)CC1 [Sapitinib (AZD8931), AZD8931, reference compound]
The log2fc of the first is higher: 0.5991 for the first, 0.358 for the second.

Going from `CCN(CC)CCCCNc1ncc2cc(-c3cc(OC)cc(OC)c3)c(NC(=O)NC(C)(C)C)nc2n1` [PD173074] to `COc1cc(Nc2ncc(F)c(Nc3ccc4c(n3)NC(=O)C(C)(C)O4)n2)cc(OC)c1OC` [R406 (free base)], the log2fc rises from 0.1032 to 0.8334.

Going from `CSc1cccc(Nc2ncc3cc(-c4c(Cl)cccc4Cl)c(=O)n(C)c3n2)c1` [PD173955] to `Cn1cc(C2=C(c3ccc(Cl)cc3Cl)C(=O)NC2=O)c2ccccc21` [SB216763], the log2fc rises from −0.1932 to 0.4708.

`O=C(NOCC1CC1)c1ccc(F)c(F)c1Nc1ccc(I)cc1Cl` [PD184352 (CI-1040), PD184352, reference compound] and `O=C(NOC[C@H](O)CO)c1ccc(F)c(F)c1Nc1ccc(I)cc1F` [PD0325901] are within 0.2 log units of each other in log2fc: 0.3257 for the first, 0.3925 for the second.

`O=C(NOCC(O)CO)c1cc(Br)c(F)c(F)c1Nc1ccc(I)cc1F` (stereo not drawn) [PD318088] and `COc1cc(F)c(F)c(Nc2ccc(I)cc2F)c1NS(=O)(=O)C1(C[C@H](O)CO)CC1` [Refametinib (RDEA119, Bay 86-9766)] are within 0.2 log units of each other in log2fc: 0.4184 for the first, 0.4867 for the second.

First: Cc1cc(CS(=O)(=O)c2ccccc2)cc(OCc2ccc(CN3CCC[C@@H]3CO)cc2)c1 [PF-543]
Second: COc1ccc(COc2cc3oc(=O)c4cc(C(C)O)ccc4c3cc2OC)cc1 (stereo not drawn) [Palomid 529 (P529)]
The log2fc of the first is higher: 0.8598 for the first, 0.3192 for the second.

Compared with `CN(c1ncccc1CNc1nc(Nc2ccc3c(c2)CC(=O)N3)ncc1C(F)(F)F)S(C)(=O)=O` [PF-00562271], `CS(=O)(=O)c1cccc(CNc2nc(Nc3ccc4c(c3)CCC(=O)N4)ncc2C(F)(F)F)c1` [PF-573228] is lower in log2fc: 0.8274 for the first, 0.4325 for the second.

Going from `CN(c1ncccc1CNc1nc(Nc2ccc3c(c2)CC(=O)N3)ncc1C(F)(F)F)S(C)(=O)=O` [PF-562271] to `Cc1ccc(Nc2nccc(N(C)c3ccc4c(C)n(C)nc4c3)n2)cc1S(N)(=O)=O` [Pazopanib], the log2fc falls from 0.8258 to −0.1316.

First: Cc1nc(Nc2n[nH]c3c2CN(C(=O)N[C@H](CN(C)C)c2ccccc2)C3(C)C)c2sccc2n1 [PF-3758309]
Second: CC(C)CC(=O)Nc1n[nH]c2c1CN(C(=O)C1CCN(C)CC1)C2(C)C [PHA-793887]
The log2fc of the first is higher: 0.8283 for the first, −0.1187 for the second.

`OCCn1cc(-c2cnc3nnn(Cc4ccc5ncccc5c4)c3n2)cn1` [PF-04217903] and `Cc1ccccc1-n1c(Cn2ncc3c(N)ncnc32)nc2cccc(C)c2c1=O` [PIK-293] are within 0.2 log units of each other in log2fc: 0.2177 for the first, 0.1249 for the second.

`COc1ccc(-c2cc3c(C)nc(N)nc3n([C@H]3CC[C@H](OCCO)CC3)c2=O)cn1` [PF-04691502] and `Nc1ncnc2c1c(-c1cnc3[nH]ccc3c1)nn2C1CCCC1` [PP121] are within 0.2 log units of each other in log2fc: −0.5101 for the first, −0.5206 for the second.

First: CCc1cncnc1N1CCN(Cc2nc3ccc(C(F)(F)F)cc3[nH]2)CC1 [PF-4708671]
Second: CS(=O)(=O)N1CCN(Cc2cc3nc(-c4cccc5[nH]ncc45)nc(N4CCOCC4)c3s2)CC1 [Pictilisib (GDC-0941)]
The log2fc of the first is higher: 0.5187 for the first, −1.17 for the second.

`O=C(/C=C/c1ccc2ccccc2n1)c1ccncc1` [PFK15] and `O=C(NCc1cccc(O)c1)Nc1nc(-c2ccncc2)cs1` [RKI-1447] are within 0.2 log units of each other in log2fc: −0.9312 for the first, −0.8453 for the second.

First: CNC(=O)c1ccc(C)c(-n2c(C)cc(OCc3ccc(F)cc3F)c(Br)c2=O)c1 [PH-797804]
Second: CNC(=O)c1cc(Oc2ccc(NC(=O)Nc3ccc(Cl)c(C(F)(F)F)c3)c(F)c2)ccn1 [Regorafenib (BAY 73-4506)]
The log2fc of the first is lower: −0.5678 for the first, 0.8333 for the second.

`CCc1cccc(CC)c1NC(=O)N1Cc2[nH]nc(NC(=O)c3ccc(N4CCN(C)CC4)cc3)c2C1` [PHA-680632] and `Cc1ccc(C(=O)Nc2ccc(CN3CCN(C)CC3)c(C(F)(F)F)c2)cc1C#Cc1cnc2cccnn12` [Ponatinib (AP24534)] are within 0.2 log units of each other in log2fc: −0.4048 for the first, −0.4485 for the second.

Going from `O=C1NCCc2[nH]c(-c3ccncc3)cc21` [PHA-767491] to `Oc1ccc(-c2nc(-c3ccc(F)cc3)c(-c3ccncc3)[nH]2)cc1` [SB202190 (FHPI)], the log2fc rises from −0.9629 to −0.3986.

`CCCCCCCCCCCCc1ccc(S(=O)(=O)Nc2nncs2)cc1` [PHT-427] and `CCCS(=O)(=O)Nc1ccc(F)c(C(=O)c2c[nH]c3ncc(Cl)cc23)c1F` [PLX-4720] are within 0.2 log units of each other in log2fc: −0.02861 for the first, −0.05066 for the second.

First: Oc1cccc(-c2nc(N3CCOCC3)c3oc4ncccc4c3n2)c1 [PI-103]
Second: Oc1c2ccccc2c2c3c(cccc13)N=N2 [SP600125, reference compound]
The log2fc of the first is lower: −1.021 for the first, 0.06823 for the second.

First: CC(=O)Nc1nc(C)c(-c2ccc(Cl)c(S(=O)(=O)NCCO)c2)s1 [PIK-93]
Second: COc1cc(OC)c(/C=C/S(=O)(=O)Cc2ccc(OC)c(NCC(=O)O)c2)c(OC)c1 [Rigosertib (ON-01910)]
The log2fc of the first is lower: 0.3162 for the first, 0.6643 for the second.

Compared with `Cc1ccc(-c2nn(C(C)(C)C)c3ncnc(N)c23)cc1` [PP1], `CC(C)(C)n1nc(-c2ccc(Cl)cc2)c2c(N)ncnc21` [PP2] is lower in log2fc: 0.2956 for the first, −0.01088 for the second.

Going from `Cc1ccc(Nc2nccc(N(C)c3ccc4c(C)n(C)nc4c3)n2)cc1S(N)(=O)=O.Cl` [Pazopanib HCl (GW786034 HCl)] to `Cn1c(Nc2ccc(C(F)(F)F)cc2)nc2cc(Oc3ccnc(-c4ncc(C(F)(F)F)[nH]4)c3)ccc21` [RAF265 (CHIR-265)], the log2fc rises from 0.1817 to 0.9001.

Compared with `CCOc1cc2ncc(C#N)c(Nc3ccc(F)c(Cl)c3)c2cc1NC(=O)/C=C/CN(C)C` [Pelitinib (EKB-569)], `O=C1NC(=O)C(c2ccccc2[N+](=O)[O-])=C1Nc1ccc(O)c(Cl)c1` [SB415286] is lower in log2fc: 0.96 for the first, 0.2736 for the second.

`[H]/N=C(/N)N/C(=N/[H])NCCc1ccccc1` [Phenformin HCl] and `CC[C@H](CO)Nc1nc(NCc2ccccc2)c2ncn(C(C)C)c2n1` [Roscovitine (Seliciclib, CYC202)] are within 0.2 log units of each other in log2fc: 0.5945 for the first, 0.5993 for the second.

Compared with `Oc1cc(O)cc(/C=C/c2ccc(O)c(O)c2)c1` [Piceatannol], `O=c1c(O)c(-c2ccc(O)c(O)c2)oc2cc(O)cc(O)c12` [Quercetin] is lower in log2fc: 0.5447 for the first, −0.449 for the second.

Compared with `O=C(NC[C@H](O)CO)c1ccncc1Nc1ccc(I)cc1F` [Pimasertib (AS-703026), AS703026, reference compound], `Oc1ccc(Nc2nc(-c3ccc(Cl)cc3)cs2)cc1` [SKI II] is lower in log2fc: 0.3252 for the first, 0.06564 for the second.

`CC(C)(C)c1cc(NC(=O)Nc2ccc(-c3cn4c(n3)sc3cc(OCCN5CCOCC5)ccc34)cc2)no1` [Quizartinib (AC220)] and `CN1CCN(CCOc2cc(OC3CCOCC3)c3c(Nc4c(Cl)ccc5c4OCO5)ncnc3c2)CC1` [Saracatinib (AZD0530)] are within 0.2 log units of each other in log2fc: 0.278 for the first, 0.4009 for the second.

`CN1CCN(c2ccc(Nc3cc(-c4cccc(-n5ccc6cc(C7CC7)cc(F)c6c5=O)c4CO)cn(C)c3=O)nc2)CC1` [RN486] and `CN1CCC(CNc2ccc3ncc(-c4cccc(OC(F)(F)F)c4)n3n2)CC1` [SGI-1776 free base] are within 0.2 log units of each other in log2fc: 0.08695 for the first, −0.0254 for the second.

`CO[C@H]1C[C@@H]2CC[C@@H](C)[C@@](O)(O2)C(=O)C(=O)N2CCCC[C@H]2C(=O)O[C@H]([C@H](C)C[C@@H]2CC[C@@H](O)[C@H](OC)C2)CC(=O)[C@H](C)/C=C(\C)[C@@H](O)[C@@H](OC)C(=O)[C@H](C)C[C@H](C)/C=C/C=C/C=C/1C` [Rapamycin (Sirolimus)] and `CO[C@H]1C[C@@H]2CC[C@@H](C)[C@@](O)(O2)C(=O)C(=O)N2CCCC[C@H]2C(=O)O[C@H]([C@H](C)C[C@@H]2CC[C@@H](OP(C)(C)=O)[C@H](OC)C2)CC(=O)[C@H](C)/C=C(\C)[C@@H](O)[C@@H](OC)C(=O)[C@H](C)C[C@H](C)/C=C/C=C/C=C/1C` [Ridaforolimus (Deforolimus, MK-8669)] are within 0.2 log units of each other in log2fc: −1.552 for the first, −1.384 for the second.

Going from `COc1cc(C(=O)NC2CCN(C)CC2)ccc1Nc1ncc2c(n1)N(C1CCCC1)CC(F)(F)C(=O)N2C` [Ro3280] to `Cc1[nH]c(/C=C2\C(=O)Nc3ccc(S(=O)(=O)N(C)c4cccc(Cl)c4)cc32)c(C)c1C(=O)N1CCN(C)CC1` [SU11274], the log2fc falls from 0.4269 to 0.1013.

First: N#CC[C@H](C1CCCC1)n1cc(-c2ncnc3[nH]ccc23)cn1 [Ruxolitinib (INCB018424)]
Second: CC(C)(C)c1cnc(CSc2cnc(NC(=O)C3CCNCC3)s2)o1 [SNS-032 (BMS-387032)]
The log2fc of the first is higher: −0.1253 for the first, −1.028 for the second.

`CCn1c(N)c(C(=O)NC)c(=O)c2ccc(C#C[C@@](C)(O)COC)nc21` [SAR131675] and `CN(C)CCOc1ccc(-c2nc(-c3ccncc3)c(-c3ccc4c(c3)CC/C4=N\O)[nH]2)cc1` [SB590885] are within 0.2 log units of each other in log2fc: 0.374 for the first, 0.2113 for the second.

`C[S+]([O-])c1ccc(-c2nc(-c3ccc(F)cc3)c(-c3ccncc3)[nH]2)cc1` (stereo not drawn) [SB203580] and `N#C/C(=C(/N)Sc1ccc(N)cc1)c1ccccc1C(F)(F)F` [SL-327] are within 0.2 log units of each other in log2fc: −0.09424 for the first, −0.2882 for the second.
